Several values for one entry are separate records, joined by “and”; a condition that tells them apart may be missing. Equal values may be shown once. Inconclusive results and toxic doses are left out.
Tested on: BDF1 mice, L1210 terephthalanilide-resistant leukemia ip, survival T/C
Test: NCI In Vivo Anticancer Drug Screen. Data for tumor model L1210 Leukemia resistant to A Terephthalanilide; NSC 38280 (intraperitoneal) in B6D2F1 (BDF1) mice
Conditions: endpoint: mean survival time, higher = longer survival
Procedure: The antitumor activity of compounds was measured in mice bearing transplantable tumors. Survival or tumor size were measured and the results are expressed as the measurement made in the treated group (T) divided by the measurement made in the vehicle treated control group (C). The tumor model used in this assay is L1210 Leukemia resistant to A Terephthalanilide; NSC 38280 (intraperitoneal) in B6D2F1 (BDF1) mice

[1] = dose: 2.5 mg/kg/injection, schedule: Q01DX010 (ip), vehicle: saline
[2] = dose: 10.0 mg/kg/injection, schedule: Q01DX010 (ip), vehicle: saline
[3] = dose: 20.0 mg/kg/injection, schedule: Q01DX010 (ip), vehicle: saline
[4] = dose: 0.5 mg/kg/injection, schedule: Q01DX Z (ip), vehicle: carboxymethylcellulose (CMC)
[5] = dose: 2.0 mg/kg/injection, schedule: Q01DX Z (ip), vehicle: carboxymethylcellulose (CMC)
[6] = dose: 10.0 mg/kg/injection, schedule: Q01DX Z (ip), vehicle: carboxymethylcellulose (CMC)
[7] = dose: 50.0 mg/kg/injection, schedule: Q01DX010 (ip), vehicle: saline
[8] = dose: 100.0 mg/kg/injection, schedule: Q01DX010 (ip), vehicle: saline
[9] = dose: 125.0 mg/kg/injection, schedule: Q01DX Z (ip), vehicle: carboxymethylcellulose (CMC)
[10] = dose: 200.0 mg/kg/injection, schedule: Q01DX010 (ip), vehicle: saline
[11] = dose: 5.0 mg/kg/injection, schedule: Q01DX010 (ip), vehicle: saline
[12] = dose: 25.0 mg/kg/injection, schedule: Q01DX Z (ip), vehicle: carboxymethylcellulose (CMC)
[13] = dose: 500.0 mg/kg/injection, schedule: Q01DX Z (ip), vehicle: carboxymethylcellulose (CMC)
[14] = dose: 2.0 mg/kg/injection, schedule: Q01DX010 (ip), vehicle: saline
[15] = dose: 4.0 mg/kg/injection, schedule: Q01DX010 (ip), vehicle: saline

## CC[n+]1ccccc1-c1ccc(NC(=O)c2ccc(C(=O)Nc3ccc(-c4ccccn4)cc3)cc2)cc1
[1]
  T/C: 115 % of control
[2]
  T/C: 119 % of control
[3]
  T/C: 92 % of control

## O=C(Nc1ccc(NC(=O)Nc2cccc(C3=NCCN3)c2)cc1)Nc1cccc(C2=NCCN2)c1
dose: 60.0 mg/kg/injection, schedule: Q01DX Z (ip), vehicle: carboxymethylcellulose (CMC)
  T/C: 96 % of control
dose: 120.0 mg/kg/injection, schedule: Q01DX Z (ip), vehicle: carboxymethylcellulose (CMC)
  T/C: 106 % of control
dose: 240.0 mg/kg/injection, schedule: Q01DX Z (ip), vehicle: carboxymethylcellulose (CMC)
  T/C: 106 % of control

## Cn1cnc([N+](=O)[O-])c1Sc1nc(N)nc2nc[nH]c12
[4]
  T/C: 117 % of control
[5]
  T/C: 191 % of control
dose: 3.75 mg/kg/injection, schedule: Q01DX Z (ip), vehicle: carboxymethylcellulose (CMC)
  T/C: 170 % of control
[6]
  T/C: 120 % of control

## CSc1ncnc2nc[nH]c12
dose: 25.0 mg/kg/injection, schedule: Q01DX010 (ip), vehicle: saline
  T/C: 98 % of control and 100 % of control
dose: 31.25 mg/kg/injection, schedule: Q01DX Z (ip), vehicle: carboxymethylcellulose (CMC)
  T/C: 102 % of control
[7]
  T/C: 100 % of control and 102 % of control
dose: 62.5 mg/kg/injection, schedule: Q01DX Z (ip), vehicle: carboxymethylcellulose (CMC)
  T/C: 105 % of control
[8]
  T/C: 102 % of control and 107 % of control
[9]
  T/C: 113 % of control
[10]
  T/C: 102 % of control and 105 % of control

## O=C(Nc1ccc(C2=NCCN2)cc1)c1ccc(C(=O)Nc2ccc(C3=NCCN3)cc2)cc1
dose: 4.0 mg/kg/injection, schedule: Q01DX010 (ip), vehicle: other
  T/C: 112 % of control and 115 % of control
dose: 8.0 mg/kg/injection, schedule: Q01DX010 (ip), vehicle: other
  T/C: 123 % of control and 114 % of control
dose: 16.0 mg/kg/injection, schedule: Q01DX010 (ip), vehicle: other
  T/C: 112 % of control and 117 % of control
dose: 32.0 mg/kg/injection, schedule: Q01DX010 (ip), vehicle: other
  T/C: 114 % of control and 117 % of control
dose: 64.0 mg/kg/injection, schedule: Q01DX010 (ip), vehicle: other
  T/C: 103 % of control and 110 % of control

## Cc1cc(N(CCCl)CCCl)ccc1N=Nc1ccccc1C(=O)O
[4]
  T/C: 105 % of control
dose: 1.0 mg/kg/injection, schedule: Q01DX Z (ip), vehicle: carboxymethylcellulose (CMC)
  T/C: 102 % of control
[5]
  T/C: 115 % of control
[11]
  T/C: 108 % of control and 113 % of control
dose: 6.25 mg/kg/injection, schedule: Q01DX Z (ip), vehicle: carboxymethylcellulose (CMC)
  T/C: 111 % of control
[2]
  T/C: 116 % of control and 120 % of control
[3]
  T/C: 118 % of control and 119 % of control
[12]
  T/C: 115 % of control
dose: 37.5 mg/kg/injection, schedule: Q01DX Z (ip), vehicle: carboxymethylcellulose (CMC)
  T/C: 112 % of control
dose: 50.0 mg/kg/injection, schedule: Q01DX Z (ip), vehicle: carboxymethylcellulose (CMC)
  T/C: 100 % of control

## CC(=O)OCC1OC(n2ncc(=O)[nH]c2=O)C(OC(C)=O)C1OC(C)=O (stereo not given)
[9]
  T/C: 183 % of control
dose: 250.0 mg/kg/injection, schedule: Q01DX Z (ip), vehicle: carboxymethylcellulose (CMC)
  T/C: 206 % of control
dose: 375.0 mg/kg/injection, schedule: Q01DX Z (ip), vehicle: carboxymethylcellulose (CMC)
  T/C: 214 % of control
[13]
  T/C: 168 % of control

## Nc1ncnc2[nH]ncc12
dose: 1.5 mg/kg/injection, schedule: Q01DX010 (ip), vehicle: saline
  T/C: 103 % of control and 105 % of control
dose: 3.0 mg/kg/injection, schedule: Q01DX010 (ip), vehicle: saline
  T/C: 103 % of control and 108 % of control
dose: 6.0 mg/kg/injection, schedule: Q01DX010 (ip), vehicle: saline
  T/C: 107 % of control and 111 % of control
dose: 12.0 mg/kg/injection, schedule: Q01DX010 (ip), vehicle: saline
  T/C: 102 % of control
[12]
  T/C: 90 % of control

## O=c1[nH]c(=O)n(C2CC(O)C(CO)O2)cc1I (stereo not given)
[13]
  T/C: 151 % of control

## C[C@H](N)C(=O)N[C@@H]1[C@H]2C(=C(O)C[C@@H](O)[C@@H]2O)C(=O)O[C@@H]1C
dose: 375.0 mg/kg/injection, schedule: Q01DX Z (ip), vehicle: saline
  T/C: 156 % of control
dose: 500.0 mg/kg/injection, schedule: Q01DX Z (ip), vehicle: saline
  T/C: 170 % of control
dose: 750.0 mg/kg/injection, schedule: Q01DX Z (ip), vehicle: saline
  T/C: 202 % of control

## C#CCN(C)Cc1ccccc1
[7]
  T/C: 91 % of control
[8]
  T/C: 102 % of control
[10]
  T/C: 93 % of control

## CCN(CC)c1ccc2cc3ccc(=[N+](CC)CC)cc-3oc2c1
dose: 1.0 mg/kg/injection, schedule: Q01DX010 (ip), vehicle: saline
  T/C: 98 % of control
[14]
  T/C: 91 % of control
[15]
  T/C: 96 % of control

## O=C(Nc1ccc(NC2=NCCN2)cc1)c1ccc(C(=O)Nc2ccc(NC3=NCCN3)cc2)cc1
[14]
  T/C: 112 % of control and 113 % of control
[15]
  T/C: 115 % of control
dose: 16.0 mg/kg/injection, schedule: Q01DX010 (ip), vehicle: saline
  T/C: 122 % of control and 115 % of control

## NC(Cc1ccc(N(CCCl)CCCl)cc1)C(=O)O (stereo not given)
dose: 0.31 mg/kg/injection, schedule: Q01DX Z (ip), vehicle: carboxymethylcellulose (CMC)
  T/C: 113 % of control
dose: 0.62 mg/kg/injection, schedule: Q01DX Z (ip), vehicle: carboxymethylcellulose (CMC)
  T/C: 114 % of control
[5]
  T/C: 174 % of control
[1]
  T/C: 183 % of control
dose: 2.5 mg/kg/injection, schedule: Q01DX Z (ip), vehicle: carboxymethylcellulose (CMC)
  T/C: 162 % of control
dose: 4.0 mg/kg/injection, schedule: Q01DX Z (ip), vehicle: carboxymethylcellulose (CMC)
  T/C: 184 % of control
[11]
  T/C: 166 % of control
dose: 5.0 mg/kg/injection, schedule: Q01DX Z (ip), vehicle: carboxymethylcellulose (CMC)
  T/C: 212 % of control
dose: 7.5 mg/kg/injection, schedule: Q01DX Z (ip), vehicle: carboxymethylcellulose (CMC)
  T/C: 172 % of control
[6]
  T/C: 181 % of control
dose: 15.0 mg/kg/injection, schedule: Q01DX Z (ip), vehicle: carboxymethylcellulose (CMC)
  T/C: 120 % of control

Source: PubChem BioAssay AID282 (DTP/NCI, 2004)
